Results from patent publication US12240816B2, “Deuterated compounds and uses thereof” (Aldeyra Therapeutics, Inc., priority 2015, dated 2025).
“And” between values parts separate entries of the source, which are not always exact repeats. Equal values may be shown once. “Also recorded” adds a separate entry of the source. Marks after values point to notes of the source that are not given here.

Columns and labels:
[1] = target: T1, MT3 (ML2) (Mesocricetus auratus, UniProt A0ABM2YAB8); assay: MT3 (ML2) (agonist radioligand) binding assay; details: MT3 (ML2) (agonist radioligand)
T1 sequence (A0ABM2YAB8 1-231): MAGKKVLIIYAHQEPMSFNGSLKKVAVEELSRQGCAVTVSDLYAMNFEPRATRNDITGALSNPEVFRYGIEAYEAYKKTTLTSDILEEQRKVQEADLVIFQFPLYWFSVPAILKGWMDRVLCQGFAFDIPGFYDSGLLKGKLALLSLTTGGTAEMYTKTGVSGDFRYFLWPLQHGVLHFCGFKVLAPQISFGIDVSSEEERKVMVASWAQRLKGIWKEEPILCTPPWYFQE

[2] = test system: rat hippocampal cultures; assay: cells; type: cell-based; details: for % of Control (CFDA) / CFDA signal, Mean: CBD 10 μM + 10 μM hydrogen peroxide
[3] = test system: rat hippocampal cultures; assay: Propidium iodide cell death assay, protection from hydrogen peroxide toxicity; type: cell-based; details: for % of Control (PI) / PI signal, replicate wells: CBD 10 μM + 10 μM hydrogen peroxide; for Cell death (Propidium Iodide), % of Control / Cell death (Propidium Iodide), Mean / Cell death (Propidium Iodide), individual values: 5 hours
[4] = target: enzyme and uptake assay panel targets (Table 36) (Mus musculus, UniProt P29477); assay: biochemical; type: biochemical; details: inducible NOS; reference compound
[5] = target: T2, PR (h) (Homo sapiens, UniProt P06401); assay: PR (h) (agonist radioligand) binding assay
T2 construct: T47D cells (cytosol)
T2 sequence (P06401 679-933): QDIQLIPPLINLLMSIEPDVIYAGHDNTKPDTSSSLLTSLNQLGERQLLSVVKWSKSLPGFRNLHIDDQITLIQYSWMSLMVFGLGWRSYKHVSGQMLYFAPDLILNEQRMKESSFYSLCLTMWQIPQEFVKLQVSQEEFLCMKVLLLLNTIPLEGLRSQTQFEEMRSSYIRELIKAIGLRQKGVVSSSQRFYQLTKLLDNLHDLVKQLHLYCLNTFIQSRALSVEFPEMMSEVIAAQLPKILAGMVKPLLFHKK

[6] = 5 h, Experiment 9 (vehicle plates, Tables 17 and 18)
[7] = positive control CBD + HP 10 μM, 5 hours
[8] = 5 h, Experiment 10 (vehicle plates, Tables 19 and 20)
[9] = positive control CBD + HP 10 μM
[10] = Example 13, CFDA, DMSO, 10 μM hydrogen peroxide, 5 h, 0.1 to 300 μM tested
[11] = Example 13, PI, DMSO, 10 μM hydrogen peroxide, 5 h, 0.1 to 300 μM tested
[12] = 0.1 μM + 10 μM hydrogen peroxide, 5 hours, DMSO
[13] = 1 μM + 10 μM hydrogen peroxide, 5 hours, DMSO
[14] = 10 μM + 10 μM hydrogen peroxide, 5 hours, DMSO
[15] = 100 μM + 10 μM hydrogen peroxide, 5 hours, DMSO
[16] = 300 μM + 10 μM hydrogen peroxide, 5 hours, DMSO
[17] = 0.1 μM + 10 μM hydrogen peroxide, DMSO
[18] = 1 μM + 10 μM hydrogen peroxide, DMSO
[19] = 10 μM + 10 μM hydrogen peroxide, DMSO
[20] = 100 μM + 10 μM hydrogen peroxide, DMSO
[21] = 300 μM + 10 μM hydrogen peroxide, DMSO

Chain of enzyme and uptake assay panel targets (Table 36) (P29477 whole entry): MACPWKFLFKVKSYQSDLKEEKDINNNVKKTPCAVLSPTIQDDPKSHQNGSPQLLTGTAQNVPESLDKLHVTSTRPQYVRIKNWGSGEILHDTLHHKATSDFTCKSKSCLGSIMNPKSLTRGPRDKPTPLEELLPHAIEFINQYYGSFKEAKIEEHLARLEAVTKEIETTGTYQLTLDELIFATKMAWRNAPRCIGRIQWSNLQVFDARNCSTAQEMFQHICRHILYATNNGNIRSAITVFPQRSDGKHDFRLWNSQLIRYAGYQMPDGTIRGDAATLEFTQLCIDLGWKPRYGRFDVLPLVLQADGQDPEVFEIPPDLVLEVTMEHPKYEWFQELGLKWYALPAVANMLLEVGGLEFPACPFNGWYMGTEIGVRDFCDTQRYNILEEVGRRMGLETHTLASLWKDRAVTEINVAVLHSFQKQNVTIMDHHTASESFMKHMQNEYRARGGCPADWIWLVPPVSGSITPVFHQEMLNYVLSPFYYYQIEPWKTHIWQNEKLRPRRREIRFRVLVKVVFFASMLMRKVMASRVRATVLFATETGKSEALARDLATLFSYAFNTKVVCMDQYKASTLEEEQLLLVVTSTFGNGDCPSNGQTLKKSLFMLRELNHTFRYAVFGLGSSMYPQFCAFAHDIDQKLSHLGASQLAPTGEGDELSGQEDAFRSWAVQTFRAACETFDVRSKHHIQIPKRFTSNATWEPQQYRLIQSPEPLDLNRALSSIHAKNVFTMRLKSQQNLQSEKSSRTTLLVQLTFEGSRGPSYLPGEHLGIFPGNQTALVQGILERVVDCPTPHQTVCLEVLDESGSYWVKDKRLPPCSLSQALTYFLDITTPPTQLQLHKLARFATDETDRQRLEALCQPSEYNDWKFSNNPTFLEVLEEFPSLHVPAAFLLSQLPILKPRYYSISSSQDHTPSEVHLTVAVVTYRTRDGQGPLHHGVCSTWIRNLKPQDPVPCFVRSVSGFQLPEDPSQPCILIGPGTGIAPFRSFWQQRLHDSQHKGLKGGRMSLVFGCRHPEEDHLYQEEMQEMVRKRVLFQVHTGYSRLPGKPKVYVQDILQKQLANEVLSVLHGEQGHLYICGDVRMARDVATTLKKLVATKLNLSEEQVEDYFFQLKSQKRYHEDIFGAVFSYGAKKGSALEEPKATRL

COc1ccc2[nH]cc(CCNC(C)=O)c2c1 [melatonin]
IC50 [1]: 72 nM
Ki [1]: 71 nM
nH [1]: 0.8

C=C(C)[C@@H]1CCC(C)=C[C@H]1c1c(O)cc(CCCCC)cc1O [CBD, cannabidiol, reference compound]
% of Control (CFDA) [2, 6]: 99 ± 7%
CFDA signal, Mean [2, 6]: 43543*
% of Control (CFDA) ([2]; 5 h, Table 9 plate): 105 ± 4%
CFDA signal, Mean ([2]; 5 h, Table 9 plate): 48894*
% of Control (CFDA) ([2]; 5 h, Table 11 plate): 103 ± 5%
CFDA signal, Mean ([2]; 5 h, Table 11 plate): 44366*
% of Control (CFDA) ([2]; 5 h, Table 13 plate): 102 ± 12%
CFDA signal, Mean ([2]; 5 h, Table 13 plate): 40858*
% of Control (CFDA) ([2]; 5 h, Table 15 plate): 100 ± 7%
CFDA signal, Mean ([2]; 5 h, Table 15 plate): 41741*
Neuronal viability (CFDA), % of Control [2, 7]: 101 ± 3% and 97 ± 4%
Neuronal viability (CFDA), Mean [2, 7]: 57221* and 57590* and 55059*
% of Control (PI) [3, 8]: 112 ± 7%
PI signal, replicate wells [3, 8]: 184 and 156 and 180
% of Control (PI) ([3]; 5 h, Table 10 plate): 97 ± 9%
PI signal, replicate wells ([3]; 5 h, Table 10 plate): 117 and 180 and 121 and 192
% of Control (PI) ([3]; 5 h, Table 12 plate): 102 ± 11%
PI signal, replicate wells ([3]; 5 h, Table 12 plate): 125 and 117 (2×) and 180 (2×)
% of Control (PI) ([3]; 5 h, Table 14 plate): 108 ± 11%
PI signal, replicate wells ([3]; 5 h, Table 14 plate): 121 and 200 and 180 and 117
% of Control (PI) ([3]; 5 h, Table 16 plate): 103 ± 8%
PI signal, replicate wells ([3]; 5 h, Table 16 plate): 129 and 184 and 180 and 117
Cell death (Propidium Iodide), % of Control [3, 9]: 93 ± 9% and 91 ± 10% and 91 ± 8%
Cell death (Propidium Iodide), Mean [3, 9]: 154* and 136* and 145*
Cell death (Propidium Iodide), individual values [3, 9]: 171 and 123 and 197 and 119 and 83 and 147 and 164 and 139 and 104 and 175

CC(C)(O)c1nc2ncccc2cc1N [ALD-5]
EC50 ± SE [2, 10]: Inactive
Full Efficacy Concentration [2, 10]: Inactive
No effect Concentration [2, 10]: Inactive
EC50 ± SE [3, 11]: Inactive
Full Efficacy Concentration [3, 11]: Inactive
No effect Concentration [3, 11]: Inactive
protection from cell death ([3]; PI, 0.1 to 300 μM, DMSO, 10 μM hydrogen peroxide, 5 h): no statistically significant protection from cell death; also recorded: did not produce statistically significant protection from cell death

CC(=N)NCc1cccc(CN)c1 [Compound 1400W]
IC50 [4]: 40 nM
nH [4]: 1.4

CCC(=O)[C@@]1(C)CC[C@H]2[C@@H]3CCC4=CC(=O)CCC4=C3CC[C@@]21C [promegestone]
IC50 [5]: 0.47 nM
Ki [5]: 0.38 nM
nH [5]: 1.6

CC(C)(O)c1nc2ccccc2nc1N [ALD2]
Neuronal viability (CFDA), % of Control [2, 12]: 67 ± 3%
Neuronal viability (CFDA), Mean [2, 12]: 38243
Neuronal viability (CFDA), individual values [2, 12]: 40839 (3×) and 34813 and 33885
Neuronal viability (CFDA), % of Control [2, 13]: 67 ± 4%
Neuronal viability (CFDA), Mean [2, 13]: 38073
Neuronal viability (CFDA), % of Control [2, 14]: 71 ± 5%
Neuronal viability (CFDA), Mean [2, 14]: 40512
Neuronal viability (CFDA), % of Control [2, 15]: 68 ± 4%
Neuronal viability (CFDA), Mean [2, 15]: 38674
Neuronal viability (CFDA), % of Control [2, 16]: 72 ± 4%
Neuronal viability (CFDA), Mean [2, 16]: 41274
Cell death (Propidium Iodide), % of Control [3, 17]: 172 ± 5%
Cell death (Propidium Iodide), Mean [3, 17]: 274
Cell death (Propidium Iodide), individual values [3, 17]: 258 and 294 (2×) and 259 and 266
Cell death (Propidium Iodide), % of Control [3, 18]: 166 ± 9%
Cell death (Propidium Iodide), Mean [3, 18]: 264
Cell death (Propidium Iodide), individual values [3, 18]: 229 and 294 and 258 and 242 and 298
Cell death (Propidium Iodide), % of Control [3, 19]: 167 ± 13%
Cell death (Propidium Iodide), Mean [3, 19]: 266
Cell death (Propidium Iodide), individual values [3, 19]: 293 and 329 and 258 and 225 (2×)
Cell death (Propidium Iodide), % of Control [3, 20]: 157 ± 8%
Cell death (Propidium Iodide), Mean [3, 20]: 249
Cell death (Propidium Iodide), individual values [3, 20]: 225 (2×) and 258 and 242 and 294
Cell death (Propidium Iodide), % of Control [3, 21]: 182 ± 8%
Cell death (Propidium Iodide), Mean [3, 21]: 290
Cell death (Propidium Iodide), individual values [3, 21]: 302 and 294 (2×) and 320 and 242
